Entries after “also recorded” stand apart in the source; their conditions may differ.
Tests used:
[1] = Concentration effects of Dotarem and Gadavist on ^23Na spectra, concentric tubes phantom; type: physicochemical; conditions: 20 mM, 10 mM, 5 mM in outer compartment, tubes parallel to the magnetic field
Description: Spectra are shown for 20 mM, 10 mM, and 5 mM, where 0 ppm corresponds to the natural, unshifted ^23Na resonance of the inner compartment to which no agent was added.

U87-bearing rat brain = assay: In vivo ^23Na-MRSI line broadening in glioma models
From the text: FIGS. 10C-10F illustrates images according to certain embodiments of the disclosure. […] However, the ^23Na linewidth analysis by TmDOTP^5− is confounded by its high ^23Na shiftability. This peak separation in vivo overestimates the full-width at half-maximum (FWHM) calculations and exaggerates the measured ^23Na linewidths.
Slice 1 is most superficial, and slice 3 is the deepest. The tumor outline is depicted in white in all columns.
This establishes GdDOTP^5−-induced ^23Na linewidth broadening as a potential surrogate marker for the altered Na^+ biodistribution within tumors. Thus, in brain tumor models, TmDOTP^5− with ^23Na-NMR can separate Na^+ in intracellular, blood, and interstitial pools, while GdDOTP^5− can distinguish Na^+ within intracellular and extracellular (i.e., blood and interstitial) pools.
Because the majority of the present studies looked at ^23Na chemical shift, the line broadening capabilities of these paramagnetic agents were also interrogated. […] This is due to the high magnetic moment of Gd^3+ which contributes to some degree of anisotropy to the paramagnetic susceptibility. […] Crucially, this family of paramagnetic agents has allowed to insightful probing of the tumor microenvironment and drawing of significant conclusions about tumor aggressiveness based on spectroscopic analysis.

[2] = Comparison of ^23Na shiftability and broadening potential of DOTP agents; type: physicochemical
[3] = Bulk magnetic susceptibility (BMS) contribution to chemical shift in phantoms; type: physicochemical; conditions: phantoms
From the text: Upon translation of the present in vitro results to in vivo situations, certain confounding factors must be addressed. In the interstitial space, there are additional cations such as calcium (Ca^2+), magnesium (Mg^2+) and K^+ which will also bind to anionic contrast agents like TmDOTP^5−. However, physiologically their concentrations are low compared to Na^+. […] Additionally, there is a contribution to the chemical shift from bulk magnetic susceptibility (BMS) changes brought about by TmDOTP^5− in addition to the hyperfine shifts induced by interactions with Na^+. Experiments were performed on different DOTP^8− salts in phantoms parallel and perpendicular to the main magnetic field B0, and also spherical phantoms in which there was no BMS contribution. Only a small portion (˜2%) of the total chemical shift for TmDOTP^5− was due to BMS arising due to anisotropy of the paramagnetic susceptibility, and the remainder was the hyperfine shift.

U87 tumors = assay: Sorafenib treatment of U87 GBM models monitored by ^1H-MRI and ^23Na-MRSI; type: in vivo, rat; conditions: for tumor growth: U87, 0.1 g/kg body weight daily oral gavage from day 9, imaged 6 days after, vs DMSO control
Description: FIG. 9 depicts spatial distributions of compartmentalized ^23Na signals (Na^+b, Na^+e, Na^+i) as well as transendothelial (ΔNa^+end) and transmembrane (ΔNa^+mem) gradients in a pair of U87 tumors, one of which was treated with sorafenib, an anti-angiogenic tyrosine kinase inhibitor that targets vascular endothelial growth factor receptor (VEGFR) and platelet-derived growth factor receptor (PDGFR). Sorafenib dosage was 0.1 g/kg body weight, dissolved in dimethylsulfoxide (DMSO) for the treated animal, whereas the untreated control received an equivalent dose of pure DMSO. Daily treatment began on day 9 post-tumor-inoculation, and imaging was performed an additional 6 days after.
Having established the utility of ^23Na-MRSI in vivo with TmDOTP^5−, additional applications of Na^+ imaging were explored, such as monitoring therapeutic efficacy or using other agents to probe different spectroscopic characteristics. A separate cohort of U87 GBM models were treated with sorafenib, an anti-angiogenic tyrosine kinase inhibitor, with some animals kept as controls. Sorafenib treatment (0.1 g/kg body weight) began on day 9 following tumor inoculation and was dissolved in dimethylsulfoxide (DMSO) to be delivered via oral gavage. […] Therefore, ^23Na-MRSI with TmDOTP^5− has potential to effectively image the efficacy of cancer drugs.

Molecule: O=C([O-])CN1CCN(CC(=O)[O-])CCN([C@H](CO)[C@H](O)CO)CCN(CC(=O)[O-])CC1.[Gd+3] [Gadavist, Gd^3+2,2′,2″-(10-((2R,3S)-1,3,4-trihydroxybutan-2-yl)-1,4,7,10-tetraazacyclododecane-1,4,7-triyl)triacetate]
- ^23Na shiftability [1]: shiftability stronger than the other Gd^3+-based agents with macrocyclic chelates

Molecule: O=P([O-])([O-])CN1CCN(CP(=O)([O-])[O-])CCN(CP(=O)([O-])[O-])CCN(CP(=O)([O-])[O-])CC1.[Gd+3] [GdDOTP^5−]
- ^23Na line broadening in tumor versus normal tissue (U87-bearing rat brain; glioma models, after agent infusion): most prominent within in the tumor; also recorded: considerable linewidth broadening within gliomas; also recorded: larger within the tumor as well compared to healthy tissue
- correlation of tumoral line broadening with increases in ΔNa^+end and decreases in ΔNa^+mem (U87-bearing rat brain; same rat, gradients from TmDOTP^5− shifts): correlated well
- broadening potential (sensitivity of linewidth to agent concentration), words [2]: high broadening potentials; also recorded: comparable broadening potential as TmDOTP^5−
- shiftability (sensitivity of ^23Na chemical shift to agent concentration), words [2]: without inducing ^23Na shift differences between compartments; also recorded: smaller shiftability
- BMS contribution to chemical shift [3]: dominated by BMS effect

Molecule: CNC(=O)c1cc(Oc2ccc(NC(=O)Nc3ccc(Cl)c(C(F)(F)F)c3)cc2)ccn1 [sorafenib]
- tumor growth (U87 tumors): slow tumor growth compared to untreated animals
- tumor growth (U87 tumors; listed as Sorafenib): retarded the growth rate of the tumor
- region of alterations in Na^+ distribution (elevated Na b and ΔNa^+end, decreased Na^+e and ΔNa^+mem) (U87 tumors; U87, treated vs untreated tumor, ^23Na-MRSI with TmDOTP^5−): confined to a smaller region for the treated tumor

Molecule: Gd^3+2-[4,7,10-tris(carboxymethyl)-1,4,7,10-tetrazacyclododec-1-yl]acetate [Dotarem]
- ^23Na shiftability [1]: shiftability stronger than the other Gd^3+-based agents with macrocyclic chelates
